According to publication PMC12073635, “Synthesis of Tricyclic and Tetracyclic Lactone Derivatives of Thieno[2,3-b]pyrazine or Thieno[2,3-b]quinoline: Preliminary Antitumor and Antiparasitic Activity Evaluation” (Molecules, 2025):
Entries after “also recorded” stand apart in the source; their conditions may differ.

Columns and labels:
[1] = test system: MCF-7 (breast adenocarcinoma) cells; assay: SRB cell growth inhibition assay, MCF-7; assay type: cell-based, human; settings: Homo sapiens, MCF7, 72 h, mean ± standard deviation
Method: (§1) The antitumor potential of the Sonogashira coupling products 2, tricyclic lactones 3 and 5, and tetracyclic lactones 7 was evaluated using the sulforhodamine B (SRB) assay against five human tumor cell lines: colorectal adenocarcinoma (CaCo-2), breast adenocarcinoma (MCF-7), gastric adenocarcinoma (AGS), cervical carcinoma (HeLa), and non-small cell lung cancer (NCI-H460). A primary pig liver cell culture (PLP2) was used to assess the toxicity of compounds.
(§2) The human tumor cell lines used were CaCo-2 (colorectal adenocarcinoma), MCF-7 (breast adenocarcinoma), AGS (gastric adenocarcinoma), HeLa (cervical carcinoma), NCI-H460 (lung carcinoma). Non-tumor cell lines were also tested: PLP2 (primary pig liver culture). All the cell lines were maintained in RPMI-1640 medium supplemented with 10% fetal bovine serum, glutamine (2 mM), penicillin (100 U/mL), and streptomycin ([…]), with the exception of PLP2, which was maintained in DMEM medium supplemented with fetal bovine serum (10%), glutamine and antibiotics. The culture flasks were incubated at 37 °C and with 5% CO2, under a humid atmosphere. The cells were used only when they had 70 to 80% confluence. A known mass of each compound was dissolved in DMSO/H2O (1:1, 1 mL), in order to obtain the stock solutions with a concentration of 1 mM. […] Each compound concentration (10 μL) was incubated with the cell suspension (190 μL) of the cell lines tested in 96-well microplates for 72 h. The microplates were incubated at 37 °C and with 5% CO2 in a humid atmosphere after checking the adherence of the cells. All cell lines were tested at a concentration of 10,000 cells/well. After the incubation period, the cells were treated: TCA (10% w/v; 100 μL) was previously cooled, and plates were incubated for 1 h at 4 °C, washed with water, and, after drying, a SRB solution (0.057%, m/v; 100 μL) was added and left to stand at room temperature for 30 min. To remove non-adhered SRB, plates were washed three times with a solution of acetic acid (1% v/v) and placed to dry. Finally, an adhered SRB was solubilized with Tris (10 mM, 200 μL) and the absorbance at a wavelength of 540 nm was read in the Biotek ELX800 microplate reader. The results obtained by the SRB assay were expressed regarding the concentration compounds that can inhibit cell growth by 50%—GI50. Doxorubicin was used as a positive control.

[2] = test system: AGS (gastric adenocarcinoma) cells; assay: SRB cell growth inhibition assay, AGS; assay type: cell-based; settings: Homo sapiens, 72 h, mean ± standard deviation
Method: as §1, §2

[3] = MTT cytotoxicity in THP-1-derived macrophages; assay type: cell-based, human; settings: human, THP-1-derived macrophages (PMA-differentiated); MTT, 72 h, tested 100 to 12.5 μM; read-out: CC50 Interval in THP-1-Derived Macrophages
Method: (§3) Human leukemia cell line, THP-1 (ATCC® TIB-202™, Manassas, VA, USA) was cultured in RPMI-1640 medium supplemented with 10% heat-inactivated Fetal Bovine Serum (FBS), 2 mM L-glutamine, 100 UI/mL penicillin/streptomycin, 20 mM HEPES. The cell line was maintained in a humidified incubator at 37 °C and 5% CO2 by subculture every three days in 20 mL of media at a concentration of 1 × 10^5/mL in a T75 flask. All cell culture reagents were purchased from Lonza-Bioscience (Morrisville, NC, USA).
(§4) The cytotoxicity effect of compounds on THP-1-derived macrophages was assessed by the colorimetric MTT assay (3-(4,5-dimethylthiazol-2-yl)-2,5-diphenyl tetrazolium bromide). Briefly, THP-1 cells were suspended in RPMI complete medium at a density of 1 × 10^6 cells/mL and 100 μL/well were seeded in a 96-well plate and were differentiated into macrophages by addition of 40 ng/mL of phorbol-myristate 13-acetate (PMA, Sigma, Saint Louis, MI, USA) for 24 h followed by replacement with fresh medium for more 24 h. Subsequently, cells were incubated with 100 μL of compounds ranging from 100 to 12.5 μM after dilution in the RPMI complete medium. Each condition was carried out in quadruplicate. After 72 h of incubation at 37 °C 5% CO2, the medium was removed and 200 μL of 0.5 mg/mL MTT solution diluted in RPMI was added. Plates were incubated for an additional 4 h. Then 160 μL of media was removed and the same volume of 2-propanol was added. Absorbance was read at 570 nm using a Synergy 2 Multi-Mode Reader (Biotek, Winooski, VT, USA). Cytotoxicity was evaluated by the determination of the CC50 value (drug concentration that reduced the percentage of viable cells in 50%) and calculated by non-linear regression analysis using GraphPad Prism version 8.1.1 for Windows (GraphPad Software, San Diego, CA, USA). The results represent the average of at least three independent experiments. For each compound, the Selectivity Index (SI) was calculated as the ratio between cytotoxicity in THP-1 (CC50, 72 h) and activity against parasites (IC50, 72 h).

[4] = test system: NCI-H460 (non-small cell lung cancer) cells; assay: SRB cell growth inhibition assay, NCI-H460; assay type: cell-based; settings: Homo sapiens, 72 h, mean ± standard deviation
Method: as §1, §2

[5] = test system: L. infantum MHOM/MA/67/ITMAP-263 promastigotes; assay: Resazurin-based assay against L. infantum promastigotes; assay type: cell-based, Leishmania infantum; settings: 72 h; for L. infantum % of Activity ± ST.DEV (Single Dose 20 μM): single dose 20 μM, no activity = less than 20%
Method: (§5) The antiparasitic activity of compounds 2c–g, 3a, 5a and 7 was evaluated at a single concentration of 20 μM, against Trypanosoma brucei (T. brucei) and Leishmania infantum (L. infantum) promastigotes. The results are shown in Table 9 together with the cytotoxicity data (CC50) in THP-1–derived macrophages cells.
L. infantum MHOM/MA/67/ITMAP-263 promastigotes forms were grown at 27 °C, in complete RPMI-1640 medium supplemented with 10% heat-inactivated Fetal Bovine Serum (FBS), 2 mM L-glutamine, 100 UI/mL penicillin/streptomycin, 20 mM HEPES. Parasites maintenance was performed in T25 non-ventilated flasks by subpassage at a concentration of 1 × 10^6/mL every 5 days on T25 non-ventilated flasks.
The compounds’ efficacy against L. infantum promastigotes was evaluated using a resazurin-based assay. Parasites were added to 100 µL of serial dilutions of compounds in supplemented complete medium at a cell density of 5 × 10^5/mL. As a quality control, a dose–response curve to the antileishmanial drug miltefosine was included in all the assays. The final volume of the assay was 200 µL/well. Each condition was carried out in duplicate. Following 72 h of incubation at the specific conditions for L. infantum, 20 µL of a 0.5 mM resazurin solution was added, and the plates were incubated for a further 4 h under the same conditions. The methodology to obtain the results was the same described in Section 3.2.2. for T. brucei.

[6] = SRB assay, toxicity in non-tumor PLP2 cells; assay type: cell-based, pig; settings: PLP2 primary pig liver cells (non-tumor); non-tumor primary pig liver cells, SRB assay, 72 h, mean ± standard deviation
Method: as §1, §2

[7] = test system: HeLa (cervical carcinoma) cells; assay: SRB cell growth inhibition assay, HeLa; assay type: cell-based; settings: Homo sapiens, 72 h, mean ± standard deviation
Method: as §1, §2

[8] = test system: T. brucei Lister 427 bloodstream forms; assay: Resazurin-based anti-T. brucei assay; assay type: cell-based, Trypanosoma brucei; settings: 72 h; for T. brucei % of Activity ± ST.DEV (Single Dose 20 μM): single dose 20 μM, no activity = less than 20%
Method: as §5
T. brucei Lister 427 bloodstream forms were grown in a humidified incubator at 37 °C, 5% CO2 in complete HMI-9 medium 1 supplemented with 10% heat-inactivated Fetal Bovine Serum (FBS) and 100 UI/mL penicillin/streptomycin. Parasites maintenance was performed in T25 ventilated flasks by subpassage at a concentration of 1 × 10^4/mL every 2 days on T25 ventilated flasks.
The efficacy of compounds against T. brucei bloodstream forms was evaluated using a modified resazurin-based assay previously described in the literature. Parasites were added to 100 µL of serial dilutions of compounds in supplemented complete medium at a cell density of 5 × 10^3/mL for. As a quality control, a dose–response curve for the antitrypanosomal pentamidine was included in all the assays. The final volume of the assay is 200 µL/well. Each condition was carried out in duplicate. Following 72 h incubation at the specific conditions for T. brucei, 20 µL of a 0.5 mM resazurin solution was added and plates were incubated for a further 4 h under the same conditions. Fluorescence was measured at 544 nm and 590 nm excitation and emission wavelength, respectively, using a Synergy 2 Multi-Mode Reader (Biotek, Winooski, VT, USA). Results were shown as % of parasite growth inhibition compared to control (untreated parasites) and represent the average of at least three independent experiments. The effect was evaluated by the determination of the IC50 value (concentration required to inhibit growth in 50%) and calculated by non-linear regression curves using GraphPad Prism version 8.1.1 for Windows (GraphPad Software, San Diego CA, USA).

[9] = test system: CaCo-2 (colorectal adenocarcinoma) cells; assay: SRB cell growth inhibition assay, CaCo-2; assay type: cell-based, human; settings: Homo sapiens, Caco-2, 72 h, mean ± standard deviation
Method: as §1, §2

[10] = test system: THP-1-derived macrophages; assay: MTT cytotoxicity in THP-1-derived macrophages; assay type: cell-based, human
Method: as §3, §4

| GI50 [1] [µM] | GI50 [2] [µM] | GI50 [4] [µM] | GI50 [7] [µM] | GI50 [9] [µM] | IC50 ([8]; dose-response) [µM] | T. brucei IC50 ([8]; dose-response) | IC50 ([8]; Trypanosoma brucei, dose-response) [µM] | IC50 ([5]; Leishmania infantum, dose-response) [µM] | Compound | CC50 at 72 h [3] [µM] | L. infantum % of Activity ± ST.DEV (Single Dose 20 μM) [5] | GI50 at 72 h [6] [µM] | T. brucei % of Activity ± ST.DEV (Single Dose 20 μM) [8] | cytotoxicity in THP-1-derived macrophages (in words) [10] |
| --- | --- | --- | --- | --- | --- | --- | --- | --- | --- | --- | --- | --- | --- | --- |
| 52.6 ± 3.18 | 36.3 ± 1.47 | 51.5 ± 4.18 | 35.8 ± 2.08 | 41.7 ± 1.02 | 10.8 | low μM range | < 11 |  | O=c1oc(-c2ccccc2)c(Cl)c2c1sc1nccnc12 [Compound 5a, 9-Chloro-8-phenyl-6H-pyrano[4′,3′:4,5]thieno[2,3-b]pyrazin-6-one] | 50 to 100 |  | 66.8 ± 3.58 |  | some level of toxicity; also recorded: some degree of cytotoxicity |
| 97.9 ± 6.31 | 93.5 ± 5.37 | 93.9 ± 3.18 | 78.9 ± 6.06 | 75 ± 4.49 |  |  |  |  | O=c1oc(-c2ccccc2)c(-c2ccccc2)c2c1sc1nc3ccccc3cc12 [Compound 7a, 3,4-Diphenyl-1H-pyrano[4′,3′:4,5]thieno[2,3-b]quinolin-1-one] | < 12.5 | no activity * | > 125 |  |  |
| 101 ± 7.33 | 99.8 ± 4.94 | 109 ± 9.16 | 82.8 ± 8.02 | 91.1 ± 2.46 |  |  |  | 19 | CCCCc1oc(=O)c2sc3nc4ccccc4cc3c2c1CCCC [Compound 7b, 3,4-Dibutyl-1H-pyrano[4′,3′:4,5]thieno[2,3-b]quinolin-1-one] | 12.5 to 50 |  | > 125 | no activity * |  |
| 91.2 ± 8.71 | 88.6 ± 5.08 | 97.8 ± 6.14 | 75.2 ± 6.72 | 90 ± 3.29 |  |  |  |  | COc1ccc(-c2oc(=O)c3sc4nc5ccccc5cc4c3c2-c2ccc(OC)cc2)cc1 [Compound 7d, 3,4-Bis(4-methoxyphenyl)-1H-pyrano[4′,3′:4,5]thieno[2,3-b]quinolin-1-one] | < 12.5 | no activity * | > 125 | no activity * |  |

Continued, molecule first:

| Compound | GI50 [1] [µM] | GI50 [2] [µM] | GI50 [4] [µM] | GI50 [7] [µM] | GI50 [9] [µM] | IC50 ([8]; dose-response) [µM] | T. brucei IC50 ([8]; dose-response) | IC50 ([8]; Trypanosoma brucei, dose-response) [µM] | IC50 ([5]; Leishmania infantum, dose-response) [µM] | CC50 at 72 h [3] [µM] | L. infantum % of Activity ± ST.DEV (Single Dose 20 μM) [5] | GI50 at 72 h [6] [µM] | T. brucei % of Activity ± ST.DEV (Single Dose 20 μM) [8] | cytotoxicity in THP-1-derived macrophages (in words) [10] |
| --- | --- | --- | --- | --- | --- | --- | --- | --- | --- | --- | --- | --- | --- | --- |
| COC(=O)c1sc2nccnc2c1C#Cc1ccc(F)cc1 [Compound 2c, Methyl 7-[(4-fluorophenyl)ethynyl]-thieno[2,3-b]pyrazine-6-carboxylate] | 51.8 ± 1.07 | 70.7 ± 4.72 | 67.2 ± 3.05 | 48.3 ± 1.66 | 52.1 ± 0.89 |  |  |  |  | > 100 | no activity * | > 125 | no activity * |  |
| COC(=O)c1sc2nccnc2c1C#Cc1ccc(OC)cc1 [Compound 2d, Methyl 7-[(4-methoxyphenyl)ethynyl]thieno[2,3-b]pyrazine-6-carboxylate] | 67.9 ± 2.47 | 59.3 ± 1.97 | 82.5 ± 5.35 | 62.3 ± 2.98 | 79.5 ± 3.58 |  |  |  |  | > 100 | no activity * | > 125 | no activity * |  |
| COC(=O)c1sc2nccnc2c1C#Cc1ccc(C)cc1 [Compound 2e, Methyl 7-(p-tolylethynyl)thieno[2,3-b]pyrazine-6-carboxylate] | 95.8 ± 8.08 | 89.2 ± 5.33 | 102 ± 8.13 | 76.9 ± 6.55 | 93 ± 7.23 |  |  |  |  | > 100 | no activity * | > 125 |  |  |
| COC(=O)c1sc2nccnc2c1C#Cc1ccsc1 [Compound 2g, Methyl 7-(thiophen-3-ylethynyl)thieno[2,3-b]pyrazine-6-carboxylate] | 60 ± 3.19 | 46.1 ± 1.77 | 62.1 ± 3.05 | 36.4 ± 2.85 | 30.7 ± 2.35 |  |  |  |  | > 100 | no activity * | 90.5 ± 6.47 | no activity * |  |
| O=c1oc(-c2ccc(C(F)(F)F)cc2)c(-c2ccc(C(F)(F)F)cc2)c2c1sc1nc3ccccc3cc12 [Compound 7e, 3,4-Bis(4-(trifluoromethyl)phenyl)-1H-pyrano[4’,3’:4,5]thieno[2,3-b]quinolin-1-one] |  |  |  |  |  |  |  |  |  | 25 to 50 | no activity * |  | no activity * |  |
